Laboratory results reported in ChEMBL document CHEMBL4602719, “Discovery of Potent, Selective, and Orally Bioavailable Inhibitors of USP7 with In Vivo Antitumor Activity” (J Med Chem, 2020).

Experiments:
[1] = target: Ubiquitin carboxyl-terminal hydrolase 8 (Homo sapiens, UniProt P40818); experiment: Inhibition of human USP8 expressed in Escherichia coli assessed as cleavage of Ubiquitin-Rhodamine110-glycine to Ubiquitin and Rhodamine110-glycine using Ubiquitin-Rhodamine110-glycine as substrate by fluorescence based analysis
[2] = target: Ubiquitin carboxyl-terminal hydrolase 7 (Homo sapiens, UniProt Q93009); experiment: Inhibition of recombinant full length USP7 (unknown origin) using ubiquintin-rhodamine as substrate preincubated for 30 mins followed by substrate addition measured after 1 hr by fluorescence-based Envision plate reader assay
[3] = target: Ubiquitin carboxyl-terminal hydrolase 36 (Homo sapiens, UniProt Q9P275); experiment: Inhibition of human GST-tagged USP36 CD (81 to 461 residues) expressed in Escherichia coli assessed as cleavage of Ubiquitin-Rhodamine110-glycine to Ubiquitin and Rhodamine110-glycine using Ubiquitin-Rhodamine110-glycine as substrate by fluorescence based analysis
[4] = target: OTU domain-containing protein 3 (Homo sapiens, UniProt Q5T2D3); experiment: Inhibition of human GST-tagged OTUD3 expressed in Escherichia coli assessed as cleavage of Ubiquitin-Rhodamine110-glycine to Ubiquitin and Rhodamine110-glycine using Ubiquitin-Rhodamine110-glycine as substrate by fluorescence based analysis
[5] = Inhibition of human GST-tagged OTUD5 P177S mutant expressed in Escherichia coli assessed as cleavage of Ubiquitin-Rhodamine110-glycine to Ubiquitin and Rhodamine110-glycine using Ubiquitin-Rhodamine110-glycine as substrate by fluorescence based analysis
[6] = target: Ubiquitin carboxyl-terminal hydrolase isozyme L1 (Homo sapiens, UniProt P09936); experiment: Inhibition of human 6His-tagged UCHL1 expressed in Escherichia coli assessed as cleavage of Ubiquitin-Rhodamine110-glycine to Ubiquitin and Rhodamine110-glycine using Ubiquitin-Rhodamine110-glycine as substrate by fluorescence based analysis
Ubiquitin carboxyl-terminal hydrolase isozyme L1, sequence (P09936 whole entry): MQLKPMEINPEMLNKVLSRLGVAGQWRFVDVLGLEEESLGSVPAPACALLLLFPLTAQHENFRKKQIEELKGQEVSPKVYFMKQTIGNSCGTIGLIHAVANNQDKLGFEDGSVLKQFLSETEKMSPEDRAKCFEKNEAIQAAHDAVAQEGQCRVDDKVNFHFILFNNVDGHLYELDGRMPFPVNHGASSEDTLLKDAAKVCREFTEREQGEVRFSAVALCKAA

[7] = target: Cytochrome P450 3A4 (Homo sapiens, UniProt P08684); experiment: Inhibition of CYP3A4 (unknown origin); assay type: ADME
[8] = target: Ubiquitin thioesterase OTUB2 (Homo sapiens, UniProt Q96DC9); experiment: Inhibition of human GST-tagged OTUB2 expressed in Escherichia coli assessed as cleavage of Ubiquitin-Rhodamine110-glycine to Ubiquitin and Rhodamine110-glycine using Ubiquitin-Rhodamine110-glycine as substrate by fluorescence based analysis
Ubiquitin thioesterase OTUB2, sequence (Q96DC9 whole entry): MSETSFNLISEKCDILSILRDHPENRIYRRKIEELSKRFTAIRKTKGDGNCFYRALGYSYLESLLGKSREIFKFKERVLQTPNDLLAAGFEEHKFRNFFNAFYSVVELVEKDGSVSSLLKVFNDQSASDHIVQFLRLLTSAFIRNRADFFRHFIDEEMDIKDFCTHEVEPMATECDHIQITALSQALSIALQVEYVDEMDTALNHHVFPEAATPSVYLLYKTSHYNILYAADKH

[9] = target: Ubiquitin carboxyl-terminal hydrolase 16 (Homo sapiens, UniProt Q9Y5T5); experiment: Inhibition of USP16 (unknown origin)
Ubiquitin carboxyl-terminal hydrolase 16, sequence (Q9Y5T5 whole entry, the tested form may be a part): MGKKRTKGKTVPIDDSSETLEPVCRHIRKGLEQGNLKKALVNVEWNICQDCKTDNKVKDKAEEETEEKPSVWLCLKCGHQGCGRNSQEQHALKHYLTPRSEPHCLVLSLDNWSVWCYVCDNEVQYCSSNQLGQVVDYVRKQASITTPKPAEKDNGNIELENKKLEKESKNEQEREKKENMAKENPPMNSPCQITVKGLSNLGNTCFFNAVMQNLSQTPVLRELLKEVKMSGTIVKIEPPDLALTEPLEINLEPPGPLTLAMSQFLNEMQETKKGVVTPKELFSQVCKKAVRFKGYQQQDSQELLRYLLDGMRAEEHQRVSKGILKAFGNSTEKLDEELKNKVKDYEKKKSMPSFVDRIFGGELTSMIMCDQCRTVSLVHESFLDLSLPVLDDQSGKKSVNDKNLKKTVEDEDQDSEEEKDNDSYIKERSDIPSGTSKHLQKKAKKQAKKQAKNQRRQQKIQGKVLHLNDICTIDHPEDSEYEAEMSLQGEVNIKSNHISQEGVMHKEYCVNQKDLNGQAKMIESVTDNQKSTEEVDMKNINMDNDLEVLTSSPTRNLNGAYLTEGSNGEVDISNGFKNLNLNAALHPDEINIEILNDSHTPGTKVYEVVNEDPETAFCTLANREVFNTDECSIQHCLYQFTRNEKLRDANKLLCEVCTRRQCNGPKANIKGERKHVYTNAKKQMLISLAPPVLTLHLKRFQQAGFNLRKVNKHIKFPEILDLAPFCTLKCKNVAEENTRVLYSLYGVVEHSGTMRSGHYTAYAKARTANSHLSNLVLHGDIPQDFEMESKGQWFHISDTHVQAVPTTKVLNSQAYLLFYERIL

[10] = target: Ubiquitin carboxyl-terminal hydrolase 30 (Homo sapiens, UniProt Q70CQ3); experiment: Inhibition of human USP30 CD (57 to 517 residues) expressed in Escherichia coli assessed as cleavage of Ubiquitin-Rhodamine110-glycine to Ubiquitin and Rhodamine110-glycine using Ubiquitin-Rhodamine110-glycine as substrate by fluorescence based analysis
[11] = Clearance in Sprague-Dawley rat at 0.5 mg/kg, iv; assay type: ADME, organism-based; conditions: in vivo
[12] = target: OTU domain-containing protein 7B (Homo sapiens, UniProt Q6GQQ9); experiment: Inhibition of cezanne (unknown origin)
[13] = target: Ubiquitin carboxyl-terminal hydrolase 27 (Homo sapiens, UniProt A6NNY8); experiment: Inhibition of human DAC-tagged USP27X expressed in Escherichia coli assessed as cleavage of […]-linked di-ubiquitin to mono-ubiquitin using di-ubiquitin as substrate by mass spectrometry
Ubiquitin carboxyl-terminal hydrolase 27, sequence (A6NNY8 whole entry, the tested form may be a part): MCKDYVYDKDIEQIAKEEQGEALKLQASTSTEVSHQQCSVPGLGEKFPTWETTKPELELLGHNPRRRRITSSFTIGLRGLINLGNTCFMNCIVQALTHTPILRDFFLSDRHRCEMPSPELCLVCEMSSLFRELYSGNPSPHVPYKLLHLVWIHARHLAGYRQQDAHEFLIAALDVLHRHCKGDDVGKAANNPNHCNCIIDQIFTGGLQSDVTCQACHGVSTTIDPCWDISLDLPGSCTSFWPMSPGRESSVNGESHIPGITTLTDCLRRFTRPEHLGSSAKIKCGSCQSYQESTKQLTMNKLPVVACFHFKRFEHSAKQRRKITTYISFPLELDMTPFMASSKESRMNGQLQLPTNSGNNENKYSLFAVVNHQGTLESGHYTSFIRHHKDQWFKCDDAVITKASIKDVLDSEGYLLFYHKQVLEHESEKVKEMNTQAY

[14] = target: OTU domain-containing protein 1 (Homo sapiens, UniProt Q5VV17); experiment: Inhibition of human 6His-tagged OTUD1 CD (270 to 481 residues) expressed in Escherichia coli assessed as cleavage of Ubiquitin-Rhodamine110-glycine to Ubiquitin and Rhodamine110-glycine using Ubiquitin-Rhodamine110-glycine as substrate by fluorescence based analysis
[15] = target: Ubiquitin carboxyl-terminal hydrolase 28 (Homo sapiens, UniProt Q96RU2); experiment: Inhibition of human GST-tagged USP28 expressed in Escherichia coli assessed as cleavage of Ubiquitin-Rhodamine110-glycine to Ubiquitin and Rhodamine110-glycine using Ubiquitin-Rhodamine110-glycine as substrate by fluorescence based analysis
Ubiquitin carboxyl-terminal hydrolase 28, sequence (Q96RU2 whole entry): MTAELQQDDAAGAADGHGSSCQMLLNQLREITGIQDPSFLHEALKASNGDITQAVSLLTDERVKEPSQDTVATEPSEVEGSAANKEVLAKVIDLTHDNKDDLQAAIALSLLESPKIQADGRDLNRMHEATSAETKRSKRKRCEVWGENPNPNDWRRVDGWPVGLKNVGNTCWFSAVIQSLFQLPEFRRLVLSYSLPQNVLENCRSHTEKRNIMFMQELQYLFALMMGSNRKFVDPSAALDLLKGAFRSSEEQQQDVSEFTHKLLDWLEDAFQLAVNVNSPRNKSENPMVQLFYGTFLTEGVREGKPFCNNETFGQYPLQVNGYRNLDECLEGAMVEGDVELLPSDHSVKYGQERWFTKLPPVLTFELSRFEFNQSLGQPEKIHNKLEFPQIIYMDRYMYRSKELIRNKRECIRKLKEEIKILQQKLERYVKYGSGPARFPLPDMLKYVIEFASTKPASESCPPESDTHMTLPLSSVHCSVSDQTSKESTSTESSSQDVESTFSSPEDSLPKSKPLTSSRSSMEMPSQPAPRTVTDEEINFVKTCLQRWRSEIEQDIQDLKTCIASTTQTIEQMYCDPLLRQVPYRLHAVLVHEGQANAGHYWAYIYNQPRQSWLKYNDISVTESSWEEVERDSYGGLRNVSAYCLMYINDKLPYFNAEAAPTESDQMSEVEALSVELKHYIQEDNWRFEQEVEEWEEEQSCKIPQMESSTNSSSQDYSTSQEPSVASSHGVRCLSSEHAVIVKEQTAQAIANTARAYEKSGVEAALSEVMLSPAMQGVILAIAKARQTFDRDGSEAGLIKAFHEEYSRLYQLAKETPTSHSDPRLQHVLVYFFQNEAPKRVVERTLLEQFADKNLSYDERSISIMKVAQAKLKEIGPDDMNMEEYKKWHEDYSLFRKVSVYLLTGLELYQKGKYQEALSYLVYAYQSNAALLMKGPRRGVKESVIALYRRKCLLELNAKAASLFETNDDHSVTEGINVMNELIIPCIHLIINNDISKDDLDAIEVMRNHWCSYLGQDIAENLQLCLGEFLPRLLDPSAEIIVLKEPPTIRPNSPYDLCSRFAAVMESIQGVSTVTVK

[16] = target: Josephin-2 (Homo sapiens, UniProt Q8TAC2); experiment: Inhibition of human 6His-tagged JOSD2 expressed in Escherichia coli assessed as cleavage of Ubiquitin-Rhodamine110-glycine to Ubiquitin and Rhodamine110-glycine using Ubiquitin-Rhodamine110-glycine as substrate by fluorescence based analysis
Josephin-2, sequence (Q8TAC2 whole entry): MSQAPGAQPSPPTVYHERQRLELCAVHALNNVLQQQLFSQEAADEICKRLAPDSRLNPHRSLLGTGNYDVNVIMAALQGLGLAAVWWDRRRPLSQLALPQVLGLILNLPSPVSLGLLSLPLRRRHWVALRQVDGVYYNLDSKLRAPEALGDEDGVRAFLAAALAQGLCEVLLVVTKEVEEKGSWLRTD

[17] = target: Ubiquitin carboxyl-terminal hydrolase 14 (Homo sapiens, UniProt P54578); experiment: Inhibition of human His6-tagged USP14 expressed in Escherichia coli using Ubiquitin-Rhodamine110-glycine as substrate by fluorescence based analysis
[18] = species: Homo sapiens; experiment: Selectivity index, ratio of IC50 for human GST-tagged VCPIP CD (25 to 561 residues) expressed in Escherichia coli assessed as cleavage of Ubiquitin-Rhodamine110-glycine to Ubiquitin and Rhodamine110-glycine using Ubiquitin-Rhodamine110-glycine as substrate by fluorescence based analysis to IC50 for inhibition of recombinant full length USP7 (unknown origin) using ubiquintin-rhodamine as substrate preincubated for 30 mins followed by substrate addition measured after 1 hr by fluorescence-based Envision plate reader assay
[19] = target: T1, Ubiquitin carboxyl-terminal hydrolase isozyme L3 (Homo sapiens, UniProt P15374); experiment: Inhibition of human GST-tagged UCHL3 expressed in Escherichia coli assessed as cleavage of Ubiquitin-Rhodamine110-glycine to Ubiquitin and Rhodamine110-glycine using Ubiquitin-Rhodamine110-glycine as substrate by fluorescence based analysis
T1 sequence (P15374 whole entry): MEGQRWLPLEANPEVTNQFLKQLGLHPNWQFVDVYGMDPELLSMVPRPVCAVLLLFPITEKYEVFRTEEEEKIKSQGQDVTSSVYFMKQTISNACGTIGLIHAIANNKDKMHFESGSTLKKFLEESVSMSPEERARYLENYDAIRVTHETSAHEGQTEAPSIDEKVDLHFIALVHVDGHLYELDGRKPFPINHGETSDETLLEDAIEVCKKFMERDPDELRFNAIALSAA

[20] = target: Ubiquitin carboxyl-terminal hydrolase 4 (Homo sapiens, UniProt Q13107); experiment: Inhibition of human 6His-tagged USP4 expressed in Escherichia coli assessed as cleavage of Ubiquitin-Rhodamine110-glycine to Ubiquitin and Rhodamine110-glycine using Ubiquitin-Rhodamine110-glycine as substrate by fluorescence based analysis
[21] = target: Ubiquitin carboxyl-terminal hydrolase CYLD (Homo sapiens, UniProt Q9NQC7); experiment: Inhibition of human 6His-tagged CYLD expressed in baculovirus infected Sf21 insect cells assessed as cleavage of Ubiquitin-Rhodamine110-glycine to Ubiquitin and Rhodamine110-glycine using Ubiquitin-Rhodamine110-glycine as substrate by fluorescence based analysis
Ubiquitin carboxyl-terminal hydrolase CYLD, sequence (Q9NQC7 whole entry): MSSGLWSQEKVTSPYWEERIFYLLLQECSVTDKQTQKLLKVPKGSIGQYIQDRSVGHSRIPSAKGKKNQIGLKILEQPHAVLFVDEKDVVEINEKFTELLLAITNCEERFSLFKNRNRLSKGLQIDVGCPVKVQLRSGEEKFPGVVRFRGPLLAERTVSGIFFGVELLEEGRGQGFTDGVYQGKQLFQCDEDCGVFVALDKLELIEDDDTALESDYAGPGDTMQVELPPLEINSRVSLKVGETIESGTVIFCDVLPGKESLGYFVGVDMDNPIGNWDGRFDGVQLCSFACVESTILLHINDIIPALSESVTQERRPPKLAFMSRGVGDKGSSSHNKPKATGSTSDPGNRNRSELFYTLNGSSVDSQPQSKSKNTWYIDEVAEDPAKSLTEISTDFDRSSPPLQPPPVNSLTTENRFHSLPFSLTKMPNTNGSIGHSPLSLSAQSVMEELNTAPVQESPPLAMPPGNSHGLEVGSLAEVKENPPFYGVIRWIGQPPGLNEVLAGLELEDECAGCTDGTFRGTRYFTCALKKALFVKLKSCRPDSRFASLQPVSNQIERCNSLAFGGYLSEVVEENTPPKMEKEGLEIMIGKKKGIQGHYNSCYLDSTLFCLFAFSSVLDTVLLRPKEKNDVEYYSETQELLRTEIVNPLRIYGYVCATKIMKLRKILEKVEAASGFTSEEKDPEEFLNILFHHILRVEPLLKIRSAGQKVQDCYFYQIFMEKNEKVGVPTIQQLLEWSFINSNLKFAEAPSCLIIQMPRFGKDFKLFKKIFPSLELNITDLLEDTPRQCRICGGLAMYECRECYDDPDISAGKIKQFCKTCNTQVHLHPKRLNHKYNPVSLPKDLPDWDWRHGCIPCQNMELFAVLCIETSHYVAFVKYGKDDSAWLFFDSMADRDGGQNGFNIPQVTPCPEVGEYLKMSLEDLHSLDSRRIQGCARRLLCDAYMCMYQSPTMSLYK

[22] = target: Ubiquitin carboxyl-terminal hydrolase 45 (Homo sapiens, UniProt Q70EL2); experiment: Inhibition of USP45 (unknown origin)
Ubiquitin carboxyl-terminal hydrolase 45, sequence (Q70EL2 whole entry): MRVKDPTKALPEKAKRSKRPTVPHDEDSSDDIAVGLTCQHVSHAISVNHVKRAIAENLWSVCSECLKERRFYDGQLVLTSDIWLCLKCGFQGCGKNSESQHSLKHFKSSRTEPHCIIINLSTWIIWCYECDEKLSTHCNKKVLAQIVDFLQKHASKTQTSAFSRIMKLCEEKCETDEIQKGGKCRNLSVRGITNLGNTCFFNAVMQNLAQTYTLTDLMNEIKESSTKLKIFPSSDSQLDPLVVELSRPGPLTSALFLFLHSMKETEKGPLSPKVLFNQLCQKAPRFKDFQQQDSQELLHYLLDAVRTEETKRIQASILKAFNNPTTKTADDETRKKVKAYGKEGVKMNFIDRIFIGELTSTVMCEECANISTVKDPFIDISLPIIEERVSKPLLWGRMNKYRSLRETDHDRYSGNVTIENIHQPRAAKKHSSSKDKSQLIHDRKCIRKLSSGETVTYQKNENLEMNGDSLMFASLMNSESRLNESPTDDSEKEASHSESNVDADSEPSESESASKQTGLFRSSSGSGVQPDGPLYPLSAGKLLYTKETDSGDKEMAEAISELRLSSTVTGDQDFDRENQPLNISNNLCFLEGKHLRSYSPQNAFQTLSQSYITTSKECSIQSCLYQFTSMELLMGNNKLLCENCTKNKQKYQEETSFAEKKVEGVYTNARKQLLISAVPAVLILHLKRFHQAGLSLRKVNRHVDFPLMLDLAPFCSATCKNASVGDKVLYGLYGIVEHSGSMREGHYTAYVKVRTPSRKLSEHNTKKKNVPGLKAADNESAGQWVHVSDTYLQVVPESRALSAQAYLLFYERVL

[23] = target: Deubiquitinase OTUD6B (Homo sapiens, UniProt Q8N6M0); experiment: Inhibition of human GST-tagged OTUD6B expressed in Escherichia coli assessed as cleavage of Ubiquitin-Rhodamine110-glycine to Ubiquitin and Rhodamine110-glycine using Ubiquitin-Rhodamine110-glycine as substrate by fluorescence based analysis
[24] = target: OTU domain-containing protein 6A (Homo sapiens, UniProt Q7L8S5); experiment: Inhibition of human His6-tagged OTUD6A expressed in Escherichia coli assessed as cleavage of Ubiquitin-Rhodamine110-glycine to Ubiquitin and Rhodamine110-glycine using Ubiquitin-Rhodamine110-glycine as substrate by fluorescence based analysis

- IC50 [1]: > 10 µM
- IC50 [2]: 0.00018 µM
- IC50 [3]: > 10 µM
- IC50 [4]: > 10 µM
- IC50 [5]: > 10 µM
- IC50 [6]: > 10 µM
- INH [7]: 6.2 µM
- IC50 [8]: > 10 µM
- IC50 [9]: > 10 µM
- IC50 [10]: > 10 µM
- clearance [11]: 0.11 L/h/kg
- IC50 [12]: > 10 µM
- IC50 [13]: > 10 µM
- IC50 [14]: > 10 µM
- IC50 [15]: > 10 µM
- IC50 [16]: > 10 µM
- IC50 [17]: > 10 µM
- Ratio IC50 [18]: > 50000
- IC50 [19]: > 10 µM
- IC50 [20]: > 10 µM
- IC50 [21]: > 10 µM
- IC50 [22]: > 10 µM
- IC50 [23]: > 10 µM
- IC50 [24]: > 10 µM
Structure (SMILES): Cc1cc(Cl)cc(-c2ccnc3cc(CN4C(=O)C5C(C4=O)C5(C)C)sc23)c1O[C@@H]1CCNC[C@@H]1C (some centres undefined)
